# Data reported in the NIST ThermoML archive (doi:10.1016/j.jct.2019.01.021).
# Numbers after ± are expanded uncertainties.
# Assay: molar heat capacity at constant pressure
# Conditions: 101.33 kPa, Small (less than 1 g) adiabatic calorimetry
structure (smiles),measurement,setting,value
N.NS(=O)(=O)O [ammonium sulfamate],molar heat capacity at constant pressure,"254.34 K, Crystal 2",145.58 ± 0.72 J/K/mol
same,molar heat capacity at constant pressure,"254.54 K, Crystal 1",146.89 ± 0.76 J/K/mol
same,molar heat capacity at constant pressure,"254.58 K, Crystal 1",148.65 ± 0.8 J/K/mol
same,molar heat capacity at constant pressure,"255.05 K, Crystal 1",140.26 ± 0.74 J/K/mol
same,molar heat capacity at constant pressure,"255.16 K, Crystal 1",140.01 ± 0.68 J/K/mol
same,molar heat capacity at constant pressure,"255.17 K, Crystal 1",141.54 ± 0.69 J/K/mol
same,molar heat capacity at constant pressure,"255.56 K, Crystal 1",139.82 ± 0.68 J/K/mol
same,molar heat capacity at constant pressure,"255.74 K, Crystal 1",139.92 ± 0.68 J/K/mol
same,molar heat capacity at constant pressure,"256 K, Crystal 1",139.89 ± 0.68 J/K/mol
same,molar heat capacity at constant pressure,"256.07 K, Crystal 1",140.15 ± 0.68 J/K/mol
same,molar heat capacity at constant pressure,"256.32 K, Crystal 1",140.33 ± 0.68 J/K/mol
same,molar heat capacity at constant pressure,"256.58 K, Crystal 1",140.36 ± 0.68 J/K/mol
same,molar heat capacity at constant pressure,"256.83 K, Crystal 1",140.15 ± 0.68 J/K/mol
same,molar heat capacity at constant pressure,"256.9 K, Crystal 1",140.4 ± 0.68 J/K/mol
same,molar heat capacity at constant pressure,"257.09 K, Crystal 1",140.26 ± 0.68 J/K/mol
same,molar heat capacity at constant pressure,"257.48 K, Crystal 1",140.61 ± 0.68 J/K/mol
same,molar heat capacity at constant pressure,"257.6 K, Crystal 1",140.56 ± 0.68 J/K/mol
same,molar heat capacity at constant pressure,"257.65 K, Crystal 1",140.39 ± 0.68 J/K/mol
same,molar heat capacity at constant pressure,"258.06 K, Crystal 1",140.66 ± 0.68 J/K/mol
same,molar heat capacity at constant pressure,"258.1 K, Crystal 1",140.61 ± 0.68 J/K/mol
same,molar heat capacity at constant pressure,"258.48 K, Crystal 1",140.51 ± 0.68 J/K/mol
same,molar heat capacity at constant pressure,"258.61 K, Crystal 1",140.63 ± 0.68 J/K/mol
same,molar heat capacity at constant pressure,"258.65 K, Crystal 1",140.92 ± 0.68 J/K/mol
same,molar heat capacity at constant pressure,"259.12 K, Crystal 1",140.78 ± 0.68 J/K/mol
same,molar heat capacity at constant pressure,"259.23 K, Crystal 1",140.91 ± 0.68 J/K/mol
same,molar heat capacity at constant pressure,"259.3 K, Crystal 1",140.91 ± 0.68 J/K/mol
same,molar heat capacity at constant pressure,"259.63 K, Crystal 1",141.01 ± 0.69 J/K/mol
same,molar heat capacity at constant pressure,"259.81 K, Crystal 1",141.1 ± 0.69 J/K/mol
same,molar heat capacity at constant pressure,"260 K, Crystal 1",141.26 ± 0.58 J/K/mol
same,molar heat capacity at constant pressure,"260.12 K, Crystal 1",141.07 ± 0.69 J/K/mol
same,molar heat capacity at constant pressure,"260.15 K, Crystal 1",141.06 ± 0.69 J/K/mol
same,molar heat capacity at constant pressure,"260.39 K, Crystal 1",141.17 ± 0.69 J/K/mol
same,molar heat capacity at constant pressure,"260.66 K, Crystal 1",141.25 ± 0.69 J/K/mol
same,molar heat capacity at constant pressure,"260.95 K, Crystal 1",141.34 ± 0.69 J/K/mol
same,molar heat capacity at constant pressure,"260.97 K, Crystal 1",141.54 ± 0.69 J/K/mol
same,molar heat capacity at constant pressure,"261.17 K, Crystal 1",141.38 ± 0.69 J/K/mol
same,molar heat capacity at constant pressure,"261.55 K, Crystal 1",141.5 ± 0.69 J/K/mol
same,molar heat capacity at constant pressure,"261.68 K, Crystal 1",141.47 ± 0.69 J/K/mol
same,molar heat capacity at constant pressure,"261.77 K, Crystal 1",141.54 ± 0.69 J/K/mol
same,molar heat capacity at constant pressure,"262.13 K, Crystal 1",141.71 ± 0.69 J/K/mol
same,molar heat capacity at constant pressure,"262.19 K, Crystal 1",141.78 ± 0.76 J/K/mol
same,molar heat capacity at constant pressure,"262.61 K, Crystal 1",141.89 ± 0.69 J/K/mol
same,molar heat capacity at constant pressure,"262.71 K, Crystal 1",141.89 ± 0.69 J/K/mol
same,molar heat capacity at constant pressure,"262.73 K, Crystal 1",141.96 ± 0.76 J/K/mol
same,molar heat capacity at constant pressure,"263.3 K, Crystal 1",141.95 ± 0.69 J/K/mol
same,molar heat capacity at constant pressure,"263.44 K, Crystal 1",142.09 ± 0.69 J/K/mol
same,molar heat capacity at constant pressure,"264.27 K, Crystal 1",142.38 ± 0.69 J/K/mol
same,molar heat capacity at constant pressure,"265.1 K, Crystal 1",142.55 ± 0.69 J/K/mol
same,molar heat capacity at constant pressure,"265.93 K, Crystal 1",142.78 ± 0.69 J/K/mol
same,molar heat capacity at constant pressure,"266.76 K, Crystal 1",143.13 ± 0.7 J/K/mol
same,molar heat capacity at constant pressure,"267.59 K, Crystal 1",143.22 ± 0.7 J/K/mol
same,molar heat capacity at constant pressure,"268.42 K, Crystal 1",143.39 ± 0.7 J/K/mol
same,molar heat capacity at constant pressure,"269.25 K, Crystal 1",143.62 ± 0.7 J/K/mol
same,molar heat capacity at constant pressure,"270 K, Crystal 1",144.09 ± 0.58 J/K/mol
same,molar heat capacity at constant pressure,"270.08 K, Crystal 1",143.91 ± 0.7 J/K/mol
same,molar heat capacity at constant pressure,"270.91 K, Crystal 1",144.17 ± 0.7 J/K/mol
same,molar heat capacity at constant pressure,"271.74 K, Crystal 1",144.43 ± 0.7 J/K/mol
same,molar heat capacity at constant pressure,"272.58 K, Crystal 1",144.63 ± 0.7 J/K/mol
same,molar heat capacity at constant pressure,"273.41 K, Crystal 1",144.84 ± 0.7 J/K/mol
same,molar heat capacity at constant pressure,"274.25 K, Crystal 1",145.06 ± 0.71 J/K/mol
same,molar heat capacity at constant pressure,"275.08 K, Crystal 1",145.36 ± 0.71 J/K/mol
same,molar heat capacity at constant pressure,"275.94 K, Crystal 1",145.56 ± 0.71 J/K/mol
same,molar heat capacity at constant pressure,"276.77 K, Crystal 1",145.78 ± 0.71 J/K/mol
same,molar heat capacity at constant pressure,"277.6 K, Crystal 1",145.99 ± 0.71 J/K/mol
same,molar heat capacity at constant pressure,"278.44 K, Crystal 1",146.2 ± 0.71 J/K/mol
same,molar heat capacity at constant pressure,"279.28 K, Crystal 1",146.42 ± 0.71 J/K/mol
same,molar heat capacity at constant pressure,"280 K, Crystal 1",146.75 ± 0.67 J/K/mol
same,molar heat capacity at constant pressure,"280.11 K, Crystal 1",146.67 ± 0.71 J/K/mol
same,molar heat capacity at constant pressure,"280.95 K, Crystal 1",147.01 ± 0.71 J/K/mol
same,molar heat capacity at constant pressure,"281.79 K, Crystal 1",147.27 ± 0.72 J/K/mol
same,molar heat capacity at constant pressure,"282.63 K, Crystal 1",147.37 ± 0.72 J/K/mol
same,molar heat capacity at constant pressure,"283.47 K, Crystal 1",147.57 ± 0.72 J/K/mol
same,molar heat capacity at constant pressure,"284.3 K, Crystal 1",147.9 ± 0.72 J/K/mol
same,molar heat capacity at constant pressure,"285.15 K, Crystal 1",148.03 ± 0.72 J/K/mol
same,molar heat capacity at constant pressure,"285.99 K, Crystal 1",148.24 ± 0.72 J/K/mol
same,molar heat capacity at constant pressure,"286.83 K, Crystal 1",148.69 ± 0.72 J/K/mol
same,molar heat capacity at constant pressure,"287.67 K, Crystal 1",148.8 ± 0.72 J/K/mol
same,molar heat capacity at constant pressure,"288.49 K, Crystal 1",148.98 ± 0.72 J/K/mol
same,molar heat capacity at constant pressure,"289.33 K, Crystal 1",149.33 ± 0.72 J/K/mol
same,molar heat capacity at constant pressure,"290 K, Crystal 1",149.41 ± 0.67 J/K/mol
same,molar heat capacity at constant pressure,"290.17 K, Crystal 1",149.55 ± 0.72 J/K/mol
same,molar heat capacity at constant pressure,"291.01 K, Crystal 1",149.81 ± 0.72 J/K/mol
same,molar heat capacity at constant pressure,"291.85 K, Crystal 1",149.83 ± 0.72 J/K/mol
same,molar heat capacity at constant pressure,"292.69 K, Crystal 1",150.13 ± 0.72 J/K/mol
same,molar heat capacity at constant pressure,"293.53 K, Crystal 1",150.52 ± 0.72 J/K/mol
same,molar heat capacity at constant pressure,"294.38 K, Crystal 1",150.46 ± 0.72 J/K/mol
same,molar heat capacity at constant pressure,"295.22 K, Crystal 1",150.72 ± 0.72 J/K/mol
same,molar heat capacity at constant pressure,"296.07 K, Crystal 1",150.87 ± 0.72 J/K/mol
same,molar heat capacity at constant pressure,"296.92 K, Crystal 1",151.22 ± 0.73 J/K/mol
same,molar heat capacity at constant pressure,"297.77 K, Crystal 1",151.31 ± 0.73 J/K/mol
same,molar heat capacity at constant pressure,"298.15 K, Crystal 1",151.49 ± 0.67 J/K/mol
same,molar heat capacity at constant pressure,"298.61 K, Crystal 1",151.62 ± 0.73 J/K/mol
same,molar heat capacity at constant pressure,"299.46 K, Crystal 1",152.1 ± 0.73 J/K/mol
same,molar heat capacity at constant pressure,"300 K, Crystal 1",151.99 ± 0.67 J/K/mol
same,molar heat capacity at constant pressure,"300.74 K, Crystal 1",152.16 ± 0.73 J/K/mol
same,molar heat capacity at constant pressure,"302.38 K, Crystal 1",152.51 ± 0.73 J/K/mol
same,molar heat capacity at constant pressure,"304 K, Crystal 1",152.9 ± 0.73 J/K/mol
same,molar heat capacity at constant pressure,"305.63 K, Crystal 1",153.27 ± 0.74 J/K/mol
same,molar heat capacity at constant pressure,"307.25 K, Crystal 1",153.72 ± 0.74 J/K/mol
same,molar heat capacity at constant pressure,"308.87 K, Crystal 1",154.08 ± 0.74 J/K/mol
same,molar heat capacity at constant pressure,"310 K, Crystal 1",154.4 ± 0.67 J/K/mol
same,molar heat capacity at constant pressure,"310.45 K, Crystal 1",154.47 ± 0.74 J/K/mol
same,molar heat capacity at constant pressure,"312.03 K, Crystal 1",154.86 ± 0.74 J/K/mol
same,molar heat capacity at constant pressure,"313.62 K, Crystal 1",155.15 ± 0.74 J/K/mol
same,molar heat capacity at constant pressure,"315.2 K, Crystal 1",155.56 ± 0.75 J/K/mol
same,molar heat capacity at constant pressure,"316.77 K, Crystal 1",155.95 ± 0.75 J/K/mol
same,molar heat capacity at constant pressure,"318.35 K, Crystal 1",156.34 ± 0.75 J/K/mol
same,molar heat capacity at constant pressure,"319.87 K, Crystal 1",156.72 ± 0.75 J/K/mol
same,molar heat capacity at constant pressure,"320 K, Crystal 1",156.81 ± 0.67 J/K/mol
same,molar heat capacity at constant pressure,"321.41 K, Crystal 1",157.11 ± 0.75 J/K/mol
same,molar heat capacity at constant pressure,"322.95 K, Crystal 1",157.43 ± 0.76 J/K/mol
same,molar heat capacity at constant pressure,"324.49 K, Crystal 1",157.89 ± 0.76 J/K/mol
same,molar heat capacity at constant pressure,"325.96 K, Crystal 1",158.18 ± 0.76 J/K/mol
same,molar heat capacity at constant pressure,"327.48 K, Crystal 1",158.02 ± 0.76 J/K/mol
same,molar heat capacity at constant pressure,"328.97 K, Crystal 1",158.76 ± 0.76 J/K/mol
same,molar heat capacity at constant pressure,"330 K, Crystal 1",159.14 ± 0.67 J/K/mol
same,molar heat capacity at constant pressure,"330.46 K, Crystal 1",159.4 ± 0.76 J/K/mol
same,molar heat capacity at constant pressure,"331.95 K, Crystal 1",159.74 ± 0.76 J/K/mol
same,molar heat capacity at constant pressure,"333.42 K, Crystal 1",160.19 ± 0.76 J/K/mol
same,molar heat capacity at constant pressure,"334.89 K, Crystal 1",160.55 ± 0.76 J/K/mol
